Measured values as given in patent US10555987B2, “GHRH agonists for the treatment of ischemic disorders” (UNIVERSITY OF MIAMI, priority 2012, dated 2020).
Marks after values point to notes of the source that are not given here. Non-standard residues stand in square brackets, D forms with d. Residues, ends and D or L forms follow the SMILES beside them. *: point of attachment. Desaminotyrosyl = O=C(CCc1ccc(O)cc1)*; NMeY = CN[C@@H](Cc1ccc(O)cc1)C(=O)O; Nle = CCCC[C@H](N)C(=O)O; Orn = NCCC[C@H](N)C(=O)O; Abu = CC[C@H](N)C(=O)O

Experiments:
GH release = experiment: GH releasing potency in vivo, subcutaneous administration (Example 14, Table 12); design: species or system rat; details: s.c.; for Serum GH level at selected time after injection (ng/ml), 0 min / Serum GH level at selected time after injection (ng/ml), 15 min / Serum GH level at selected time after injection (ng/ml), 30 min: male rats, dose 3 μg/kg, mean ± SEM
Procedure: Male Sprague-Dawley rats, weighing 200-250 g, were purchased from Charles River Laboratory (Wilmington, Mass.) and used for experiments. All animal procedures were approved by the Veterans Affairs Animal Care and Use Committee and were conducted in accordance with additional institutional guidelines as well. Briefly, groups of 5-6 animals were used in each experiment. The rats were anesthetized with 50 mg/kg of sodium pentobarbital (Nembutal, Lundbeck Inc., Deerfield, Ill.). Twenty min after inducing anesthesia, GHRH(1-29)NH2, JI-38, or new analogs were injected into the animals intravenously (i.v.) or subcutaneously (s.c.). The peptides were dissolved in 0.01 M acetic acid to get 1 μg/μl stock solution, and then diluted with 5% mannitol. Control rats received 5% mannitol only. Blood samples were collected from the jugular vein at selected times and were used for serum preparation. Concentrations of GH in rat sera were determined by ELISA. The relative potencies of tested peptides were calculated using GHRH(1-29)NH2 and JI-38 for comparison, whose potency was defined as 1. The equivalent dosage of GHRH(1-29)NH2 to reach the same level of serum growth hormone release after injection of the specific tested peptide was determined from a GHRH(1-29)NH2 standard curve using Origin 6.0 software. […] Serum GH was determined using the rat Growth Hormone ELISA kit (ALPCO Diagnostics, Mill Valley, Calif.) according to the manufacturer's instruction. Absorbance at 405 nm was measured by a Victor 3 Multi-label Counter (Perkin-Elmer, Waltham, Md.).

GHRH receptor [1] = target: T1, GHRH receptor (Homo sapiens, UniProt Q02643); experiment: Receptor binding in vitro, 125I-labeled [His1,Nle27]-hGHRH(1-32)NH2, membrane receptors of human anterior pituitary cells (Table 14); details: for Relative affinity (Binding potency) compared to JI-38: JI-38 = 1; for Relative affinity (Binding potency) compared to hGHRH(1-29): hGHRH(1-29)NH2 = 1
T1 sequence (Q02643 23-423): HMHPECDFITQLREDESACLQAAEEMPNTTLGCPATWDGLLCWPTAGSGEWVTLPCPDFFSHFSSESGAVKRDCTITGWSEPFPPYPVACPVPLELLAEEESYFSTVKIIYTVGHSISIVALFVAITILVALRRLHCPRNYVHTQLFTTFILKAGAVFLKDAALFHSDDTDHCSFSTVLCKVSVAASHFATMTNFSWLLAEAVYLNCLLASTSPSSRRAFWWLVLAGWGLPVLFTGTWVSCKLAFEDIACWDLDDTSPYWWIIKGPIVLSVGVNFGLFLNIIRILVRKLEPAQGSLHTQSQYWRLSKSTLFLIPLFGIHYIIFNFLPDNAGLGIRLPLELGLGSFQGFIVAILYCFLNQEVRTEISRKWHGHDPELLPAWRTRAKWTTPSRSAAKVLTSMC

GHRH receptor [2] = target: T1, GHRH receptor; experiment: GHRH receptor binding, competition with 125I-labeled JV-1-42, human pituitary membrane homogenates (Table 7); design: Normal human pituitaries were purchased from the National Hormone and Peptide Program; tissue National Hormone and Peptide Program (A.F. Parlow, Harbor-UCLA Medical Center, Torrance, Calif.); host or cells: normal human pituitary, membrane fraction; details: for Relative affinity (Binding potency) vs JI-38: JI-38 = 1, Table 7
Text: Normal human pituitaries were purchased from the National Hormone and Peptide Program (A.F. Parlow, Los Angeles, County Harbor-UCLA Medical Center, Torrance, Calif.).

Row | Relative affinity (Binding potency) compared to JI-38 (GHRH receptor [1]) | Relative affinity (Binding potency) compared to hGHRH(1-29) (GHRH receptor [1]) | IC50 (GHRH receptor [2]; 125I-JV-1-42, human pituitary membranes, Table 7) [nM] | Relative affinity (Binding potency) vs JI-38 (GHRH receptor [2]) | SMILES | Serum GH level at selected time after injection (ng/ml), 0 min (GH release) [ng/mL] | Serum GH level at selected time after injection (ng/ml), 15 min (GH release) [ng/mL] | Serum GH level at selected time after injection (ng/ml), 30 min (GH release) [ng/mL] | Relative potency compared to GHRH(1-29), 15 min (GH release) | Relative potency compared to JI-38, 15 min (GH release) | Relative potency compared to GHRH(1-29), 30 min (GH release) | Relative potency compared to JI-38, 30 min (GH release) | GH-releasing potency after s.c. administration (in words) (GH release)
1 | 0.53 | 1.21 | 0.55 | 7.91 | CCCC[C@H](NC(=O)[C@@H](NC(=O)[C@H](CC(=O)O)NC(=O)[C@H](CCC(N)=O)NC(=O)[C@H](CC(C)C)NC(=O)[C@H](CC(C)C)NC(=O)[C@H](CCCN)NC(=O)[C@H](CCCNC(=N)N)NC(=O)[C@H](C)NC(=O)[C@H](CO)NC(=O)[C@H](CC(C)C)NC(=O)[C@H](CCC(N)=O)NC(=O)[C@H](CC)NC(=O)[C@H](CC(C)C)NC(=O)[C@@H](NC(=O)[C@H](CCCN)NC(=O)[C@H](CCCNC(=N)N)NC(=O)[C@H](Cc1ccc(O)cc1)NC(=O)[C@H](CO)NC(=O)[C@H](CCC(N)=O)NC(=O)[C@@H](NC(=O)[C@H](Cc1ccccc1)NC(=O)[C@@H](NC(=O)[C@H](C)NC(=O)[C@H](CC(=O)O)NC(=O)[C@@H](C)NC(=O)CCc1ccc(O)cc1)[C@@H](C)CC)[C@@H](C)O)C(C)C)[C@@H](C)CC)C(=O)N[C@@H](CC(=O)O)C(=O)N[C@@H](CCCNC(=N)N)C(=O)NC [Peptide P-27408, [Dat^1, D-Ala^2, Gln^8, Orn^12, Abu^15, Orn^21, Nle^27, Asp^28]hGHRH(1-30)NH—CH3] (Desaminotyrosyl-[dA]DAIFTQSYR[Orn]VL[Abu]QLSAR[Orn]LLQDI[Nle]DR-NHMe) | 37.6 ± 15.5 | 213.3 ± 32.0 | 121.2 ± 8.4 | 57.2 | 0.91 | 100.5 | 0.90 | –
2 | 1.01 | 2.83 | – | 8.37 | CCCC[C@H](NC(=O)[C@@H](NC(=O)[C@H](CC(=O)O)NC(=O)[C@H](CCC(N)=O)NC(=O)[C@H](CC(C)C)NC(=O)[C@H](CC(C)C)NC(=O)[C@H](CCCN)NC(=O)[C@H](CCCNC(=N)N)NC(=O)[C@H](C)NC(=O)[C@H](CO)NC(=O)[C@H](CC(C)C)NC(=O)[C@H](CCC(N)=O)NC(=O)[C@H](CC)NC(=O)[C@H](CC(C)C)NC(=O)[C@@H](NC(=O)[C@H](CCCN)NC(=O)[C@H](CCCNC(=N)N)NC(=O)[C@H](Cc1ccc(O)cc1)NC(=O)[C@H](CO)NC(=O)[C@H](CCC(N)=O)NC(=O)[C@@H](NC(=O)[C@H](Cc1ccccc1)NC(=O)[C@@H](NC(=O)[C@H](C)NC(=O)[C@H](CC(=O)O)NC(=O)[C@@H](C)NC(=O)[C@H](Cc1ccc(O)cc1)NC)[C@@H](C)CC)[C@@H](C)O)C(C)C)[C@@H](C)CC)C(=O)N[C@@H](CC(=O)O)C(=O)N[C@@H](CCCNC(=N)N)C(=O)NCC [Peptide P-28420, [N—Me-Tyr^1, D-Ala^2, Gln^8, Orn^12, Abu^15, Orn^21, Nle^27, Asp^28]hGHRH(1-29)NH—CH2—CH3] (H-[NMeY][dA]DAIFTQSYR[Orn]VL[Abu]QLSAR[Orn]LLQDI[Nle]DR-NHEt) | 35.5 ± 7.6 | 256.2 ± 46.0 | 126.1 ± 15.8 | 72.6 | 1.15 | 107.8 | 0.96 | –
3 | 2.14 | 5.98 | – | 5.24 | CCCC[C@H](NC(=O)[C@@H](NC(=O)[C@H](CC(=O)O)NC(=O)[C@H](CCC(N)=O)NC(=O)[C@H](CC(C)C)NC(=O)[C@H](CC(C)C)NC(=O)[C@H](CCCN)NC(=O)[C@H](CCCNC(=N)N)NC(=O)[C@H](C)NC(=O)[C@H](CO)NC(=O)[C@H](CC(C)C)NC(=O)[C@H](CCC(N)=O)NC(=O)[C@H](CC)NC(=O)[C@H](CC(C)C)NC(=O)[C@@H](NC(=O)[C@H](CCCN)NC(=O)[C@H](CCCNC(=N)N)NC(=O)[C@H](Cc1ccc(O)cc1)NC(=O)[C@H](CO)NC(=O)[C@@H](NC(=O)[C@@H](NC(=O)[C@H](Cc1ccccc1)NC(=O)[C@@H](NC(=O)[C@H](C)NC(=O)[C@H](CC(=O)O)NC(=O)[C@@H](C)NC(=O)[C@H](Cc1ccc(O)cc1)NC)[C@@H](C)CC)[C@@H](C)O)[C@@H](C)O)C(C)C)[C@@H](C)CC)C(=O)N[C@@H](CC(=O)O)C(=O)N[C@@H](CCCNC(=N)N)C(=O)NC [Peptide P-27410, [N—Me-Tyr^1, D-Ala^2, Thr^8, Orn^12, Abu^15, Orn^21, Nle^27, Asp^28]hGHRH (1-29)NH—CH3] (H-[NMeY][dA]DAIFTTSYR[Orn]VL[Abu]QLSAR[Orn]LLQDI[Nle]DR-NHMe) | 34.1 ± 1.2 | 334.0 ± 54.0 | 250.4 ± 28.6 | 102.5 | 1.58 | 363.2 | 3.25* | significantly higher potencies at 30 minutes than at 15 minutes
4 | 0.90 | 2.50 | – | 2.96 | CCCC[C@H](NC(=O)[C@@H](NC(=O)[C@H](CC(=O)O)NC(=O)[C@H](CCC(N)=O)NC(=O)[C@H](CC(C)C)NC(=O)[C@H](CC(C)C)NC(=O)[C@H](CCCN)NC(=O)[C@H](CCCNC(=N)N)NC(=O)[C@H](C)NC(=O)[C@H](CO)NC(=O)[C@H](CC(C)C)NC(=O)[C@H](CCC(N)=O)NC(=O)[C@H](CC)NC(=O)[C@H](CC(C)C)NC(=O)[C@@H](NC(=O)[C@H](CCCN)NC(=O)[C@H](CCCNC(=N)N)NC(=O)[C@H](Cc1ccc(O)cc1)NC(=O)[C@H](CO)NC(=O)[C@H](CC(N)=O)NC(=O)[C@@H](NC(=O)[C@H](Cc1ccccc1)NC(=O)[C@@H](NC(=O)[C@H](C)NC(=O)[C@H](CC(=O)O)NC(=O)[C@@H](C)NC(=O)[C@H](Cc1ccc(O)cc1)NC)[C@@H](C)CC)[C@@H](C)O)C(C)C)[C@@H](C)CC)C(=O)N[C@@H](CC(=O)O)C(=O)N[C@@H](CCCNC(=N)N)C(=O)NCC [Peptide P-28421, [N—Me-Tyr^1, D-Ala^2, Orn^12, Abu^15, Orn^21, Nle^27, Asp^28]hGHRH(1-29) NH—CH2—CH3] (H-[NMeY][dA]DAIFTNSYR[Orn]VL[Abu]QLSAR[Orn]LLQDI[Nle]DR-NHEt) | 44.0 ± 8.9 | 252.4 ± 33.3 | 137.3 ± 17.5 | 71.2 | 1.13 | 125.4 | 1.12 | –
